Source: patent US20060084577A1, “Formulation and application of Indole-Derivatives for avoiding fruit and vegetable cracking” (priority 2004, published 2006)

Tested on: sweet cherries, 'Schneiders' variety
Experiment: Field trial of cracking of sweet cherries after application of Tryptophane on cherry trees
Assay type: in vivo, Prunus avium L.
Conditions: for Number of Damaged Fruits / Percentage of Damaged Fruits: 20 and 29 Jun. 2002, 300 cherries sampled at harvest, evaluated Jul. 7, 2002 after heavy rainfall
Method: The following Experiments describe the results of field trials, showing the reducing effect on the cracking of cherries by applying Tryptophane on cherry trees. The influence of the application of the anti-cracking formulation of the present invention on cracking of sweet cherries, was tested on the commercially available ‘Schneiders’ variety of sweet cherry in Belgium during the 2002 growing season. The plant density was approximately 1,646 stems per acre (666 stems/hectare or “ha”). Two different amounts of Tryptophane were applied on the cherry tries and compared with an untreated control. • Experiment 1: Control Group (No treatment with the anti-cracking formulation.) • Experiment 2: 0.0223 lb/acre (25 g/ha) Tryptophane, on 20 Jun. 2002, and 0.0223 lb/acre (25 g/ha) Tryptophane, on 29 Jun. 2002. • Experiment 3: 0.0446 lb/acre (50 g/ha) Tryptophane, on 20 Jun. 2002, and 0.0446 lb/acre (50 g/ha) Tryptophane, on 29 Jun. 2002.
On Jun. 20, 2002, the plants of Experiment 1 and Experiment 2, as listed above, were treated in the evening, under sunny conditions, 71.6° F. (22° C.), and little wind. The cherries began to ripen. On Jun. 29, 2002, the plants of Experiment 1 and Experiment 2 were again treated in the evening, at sunny growth conditions, under slightly cloudy skies, 68° F. (20° C.), and moderate wind. The ripening of the cherries was fully underway.
An evaluation of the cherries in the above Experiments were made on Jul. 7, 2002, after heavy rainfall. For the Experiment's Results, as listed in TABLE 1, below, 300 cherries were randomly sampled at harvest, from which the number of intact and damaged cherries was determined.

[1] = 2* 0.0223 lb/acre (25 g/ha) Tryptophane
[2] = 2*0.0446 lb/acre (50 g/ha) Tryptophane

## N[C@@H](Cc1c[nH]c2ccccc12)C(=O)O [Tryptophane]
[1]
  Number of Damaged Fruits: 78
  Percentage of Damaged Fruits: 26%
[2]
  Number of Damaged Fruits: 42
  Percentage of Damaged Fruits: 14%
Double application of 0.0446 lbs per acre (50 g per hectare), versus untreated control
  reduction of the damage to the cherries: approximately 50%
